According to PubChem BioAssay (NCI):
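Cells were grown in 96-well plates and exposed to each compound for 48 hours at five concentrations; endpoints were interpolated linearly between bracketing concentrations, or set to the highest concentration if not reached. TGI marks complete inhibition of growth.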

How the values were obtained:
Assay in all cases: NCI anticancer screen, dose series, 48 h
SF-295 CNS = tested on: SF-295 CNS
UACC-62 melanoma = tested on: UACC-62 melanoma
LOX IMVI melanoma = tested on: LOX IMVI melanoma
NCI-H226 lung = tested on: NCI-H226 lung
OVCAR-5 ovarian = tested on: OVCAR-5 ovarian
M14 melanoma = tested on: M14 melanoma
NCI/ADR-RES ovarian = tested on: NCI/ADR-RES ovarian
HT29 colon = tested on: HT29 colon
OVCAR-8 ovarian = tested on: OVCAR-8 ovarian
MOLT-4 leukemia = tested on: MOLT-4 leukemia
U251 CNS = tested on: U251 CNS
HOP-62 NSCLC = tested on: HOP-62 NSCLC
UO-31 renal = tested on: UO-31 renal
K-562 leukemia = tested on: K-562 leukemia
ACHN renal = tested on: ACHN renal
UACC-257 melanoma = tested on: UACC-257 melanoma
EKVX NSCLC = tested on: EKVX NSCLC
OVCAR-3 ovarian = tested on: OVCAR-3 ovarian
SF-539 CNS = tested on: SF-539 CNS
SN12C renal = tested on: SN12C renal
SNB-75 CNS = tested on: SNB-75 CNS
SK-MEL-5 melanoma = tested on: SK-MEL-5 melanoma
KM12 colon = tested on: KM12 colon
NCI-H522 lung = tested on: NCI-H522 lung
T-47D breast = tested on: T-47D breast
PC-3 prostate = tested on: PC-3 prostate
NCI-H23 lung = tested on: NCI-H23 lung
TK-10 renal = tested on: TK-10 renal
SK-OV-3 ovarian = tested on: SK-OV-3 ovarian
SNB-19 CNS = tested on: SNB-19 CNS
CCRF-CEM leukemia = tested on: CCRF-CEM leukemia
A549 NSCLC = tested on: A549 NSCLC
RPMI-8226 leukemia = tested on: RPMI-8226 leukemia
HOP-92 NSCLC = tested on: HOP-92 NSCLC
MDA-N = tested on: MDA-N
MCF7 breast = tested on: MCF7 breast
HCC-2998 colon = tested on: HCC-2998 colon
SK-MEL-2 melanoma = tested on: SK-MEL-2 melanoma
BT-549 breast = tested on: BT-549 breast
HCT-116 colon = tested on: HCT-116 colon
MDA-MB-435 = tested on: MDA-MB-435
NCI-H460 lung = tested on: NCI-H460 lung
DU-145 prostate = tested on: DU-145 prostate
IGROV1 ovarian = tested on: IGROV1 ovarian
CAKI-1 renal = tested on: CAKI-1 renal
SK-MEL-28 melanoma = tested on: SK-MEL-28 melanoma
SF-268 CNS = tested on: SF-268 CNS
OVCAR-4 ovarian = tested on: OVCAR-4 ovarian
MALME-3M melanoma = tested on: MALME-3M melanoma
COLO 205 colon = tested on: COLO 205 colon
SW-620 colon = tested on: SW-620 colon
HS 578T breast = tested on: HS 578T breast
HL-60(TB) leukemia = tested on: HL-60(TB) leukemia
RXF 393 renal = tested on: RXF 393 renal
MDA-MB-231 breast = tested on: MDA-MB-231 breast
HCT-15 colon = tested on: HCT-15 colon
A498 renal = tested on: A498 renal
SR leukemia = tested on: SR leukemia
786-0 renal = tested on: 786-0 renal

Measured: TGI

CC1(C)OCC=CCO1
not listed: MDA-MB-231 breast | HCT-15 colon | A498 renal | SR leukemia | 786-0 renal
> 100 µM: all other assays above

C[C@@H]1CC[C@@H]2[C@@H](C1)O[C@@H]([C@H](C)OCc1ccccc1)SC2(C)C
36.3 µM: SW-620 colon
36.1 µM: KM12 colon
35.1 µM: RPMI-8226 leukemia
31.8 µM: HCC-2998 colon
39.5 µM: K-562 leukemia
33.5 µM: U251 CNS
33.4 µM: RXF 393 renal
47.1 µM: M14 melanoma
35.6 µM: SR leukemia
40.1 µM: MDA-MB-231 breast
75.5 µM: NCI/ADR-RES ovarian
39.3 µM: A498 renal
32.9 µM: T-47D breast
29.3 µM: HCT-116 colon
34 µM: COLO 205 colon
53.5 µM: NCI-H460 lung
37.2 µM: ACHN renal
31.7 µM: OVCAR-5 ovarian
65.5 µM: MDA-N
82.7 µM: HCT-15 colon
73.3 µM: UACC-257 melanoma
29.6 µM: UO-31 renal
34.5 µM: SF-295 CNS
33 µM: NCI-H226 lung | SK-MEL-5 melanoma | SK-MEL-2 melanoma
31.5 µM: MCF7 breast
62.1 µM: 786-0 renal
53.1 µM: MALME-3M melanoma
88.1 µM: SK-MEL-28 melanoma
49.2 µM: SNB-75 CNS
40.2 µM: NCI-H522 lung
32.8 µM: LOX IMVI melanoma
36.8 µM: SNB-19 CNS
42.4 µM: SN12C renal
34.9 µM: MOLT-4 leukemia
not listed: OVCAR-3 ovarian | CCRF-CEM leukemia | HOP-92 NSCLC | HS 578T breast | HL-60(TB) leukemia
> 100 µM: all other assays above
